Laboratory results: patent US10183949B2, “Pyrimidinone derivative having autotaxin-inhibitory activity” (The University of Tokyo, priority 2014, dated 2019)

Target: T1, Human autotaxin enzyme (Homo sapiens, UniProt Q13822)
T1 construct: purchased R&D System
Assay: Evaluation of autotaxin inhibitor, 18:0 Lyso PC / choline assay (Test Example 2)
Type: biochemical
Conditions: autotaxin inhibition, IC50 class; read-out: Inhibitor activity
Outline: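 Human autotaxin in 100 mM Tris-HCl pH 7.5, 150 mM NaCl, 5 mM MgCl2, 0.05% Triton X-100 reacted with 18:0 Lyso PC (200 μM stock) and test compound 2 h at room temperature. Released choline quantified via choline oxidase/peroxidase resorufin fluorescence (ex 531/em 598 nm, 20 min); inhibition vs no-compound and no-enzyme controls, concentration-response curve.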

| Structure (SMILES) | IC50 [nM] |
| --- | --- |
| CC(=O)Nc1cc(Cl)ccc1-c1cc(=O)n(CC(=O)O)c(C)n1 [Compound I-0247] | ≥ 1000 |

Same assay, conditions: human autotaxin enzyme, 18:0 Lyso PC substrate, choline assay, room temperature 2 hours; read-out: Inhibitor activity (IC50)

| Structure (SMILES) | IC50 [nM] |
| --- | --- |
| COC(=O)Nc1cc(Cl)ccc1-c1cc(=O)n(Cc2cccc(-c3nc(=O)o[nH]3)c2)c(C)n1 [Compound I-0379] | < 10 |
| CSc1nc(-c2ccc(Cl)cc2NC(=O)C2CC2)cc(=O)n1CC(=O)NC1(C#N)CC1 [Compound I-0295] | 10 to 100 |
| Cc1nc(-c2ccc(Cl)cc2NC(=O)C2CC2)cc(=O)n1CC(=O)NCC1CCC(=O)N1 (centres unmarked) [Compound I-0450] | 10 to 100 |
| Cc1nc(-c2ccc(C#N)cc2NC(=O)C2CC2)cc(=O)n1Cc1cccc(C(=O)O)c1 [Compound I-0271] | < 10 |
| CC(C)(C)C(=O)Nc1cc(Cl)ccc1-c1cc(=O)n(Cc2cccc(C(=O)Nc3ccnc(O)c3)c2)cn1 [Compound I-0493] | ≥ 1000 |
| Cc1nc(-c2ccc(Cl)cc2NC(=O)C2CC2)cc(=O)n1CC(=O)N1CCN(CC(F)(F)F)CC1 [Compound I-0485] | 10 to 100 |
| COC(=O)Nc1cc(Cl)ccc1-c1cc(=O)n(CC(=O)N2CCCC2(C)C)c(C)n1 [Compound I-0272] | 10 to 100 |
| O=C(Cn1c(CCCC(F)(F)F)nc(-c2ccc(Cl)cc2)cc1=O)NC1CCS(=O)(=O)C1 (centres unmarked) [Compound I-0143] | 10 to 100 |
| Cc1nc(-c2ccc(F)cc2NC(=O)C2CC2)cc(=O)n1Cc1cccc(C(=O)O)c1 [Compound I-0270] | 10 to 100 |
| CC(C)(C)OC(=O)Cn1c(CCCC(F)(F)F)nc(-c2ccc(C(F)(F)F)nc2)cc1=O [Compound I-0304] | 10 to 100 |
| COC(=O)Nc1cc(Cl)ccc1-c1cc(=O)n(CC(=O)N2CCN(CC(F)(F)F)CC2)c(C)n1 [Compound I-0481] | 10 to 100 |
| CCCCCc1nc(-c2ccc(Cl)cc2)cc(=O)n1CC(=O)NCC#N [Compound I-0085] | 10 to 100 |
| O=C(NCc1cc(=O)[nH]o1)c1cccc(Cn2c(CCCC(F)(F)F)nc(-c3ccc(Cl)cc3)cc2=O)c1 [Compound I-0170] | 10 to 100 |
| O=C(Cn1c(CCCC(F)(F)F)nc(-c2ccc(Cl)cc2)cc1=O)NCc1ccnc(O)c1 [Compound I-0142] | 100 to 1000 |
| COC(=O)Nc1cc(Cl)ccc1-c1cc(=O)n(CC(=O)N2CCC(CC(=O)OC(C)(C)C)CC2)c(C)n1 [Compound I-0494] | < 10 |
| CCCCCc1nc(-c2ccc(Cl)cc2)cc(=O)n1CC(=O)NC1(c2cccnc2)CC1 [Compound I-0089] | 10 to 100 |
| O=C(Cn1c(CCCC(F)(F)F)nc(-c2ccc(Cl)cc2CO)cc1=O)NCC1(CO)CC1 [Compound I-0328] | 10 to 100 |
| CCCCCc1nc(-c2ccc(Cl)cc2)cc(=O)n1CC(=O)NC(C)C(=O)O (centres unmarked) [Compound I-0039] | 10 to 100 |
| CCCCCc1nc(-c2ccc(Cl)cc2)cc(=O)n1CC(=O)N1CCCCC1C(=O)O (centres unmarked) [Compound I-0049] | 100 to 1000 |
| O=C(Cn1cnc(-c2ccc(Cl)cc2)cc1=O)NCCCNC(=O)c1cn[nH]n1 [Compound I-0402] | ≥ 1000 |
| N#CCCN1CCN(C(=O)Cn2c(CCCC(F)(F)F)nc(-c3ccc(Cl)cc3)cc2=O)CC1 [Compound I-0136] | 100 to 1000 |
| CC(C)(O)CNC(=O)c1cccc(Cn2c(CCCC(F)(F)F)nc(-c3ccc(Cl)cc3)cc2=O)c1 [Compound I-0187] | 100 to 1000 |
| Cc1nc(-c2ccc(Cl)cc2NC(=O)C2CC2)cc(=O)n1CC(=O)O [Compound I-0259] | ≥ 1000 |
| CCCCCc1nc(-c2ccc(Cl)cc2)cc(=O)n1CC(=O)NCCC(C)O (centres unmarked) [Compound I-0096] | 100 to 1000 |

| Structure (SMILES) | IC50 [nM] |
| --- | --- |
| COC(=O)Nc1cc(Cl)ccc1-c1cc(=O)n(CC(=O)N2CC(C)(O)C2)c(C)n1 [Compound I-0411] | 100 to 1000 |
| CNC(=O)NC1CCN(C(=O)Cn2c(C)nc(-c3ccc(Cl)cc3NC(=O)C3CC3)cc2=O)CC1 [Compound I-0479] | 10 to 100 |
| COC(=O)Nc1cc(Cl)ccc1-c1cc(=O)n(CC(=O)N(C)C2(CO)CCCC2)c(C)n1 [Compound I-0302] | 10 to 100 |
| CCCCCc1nc(-c2ccc(Cl)cc2)cc(=O)n1CC(=O)NC1(C#N)CC1 [Compound I-0090] | 10 to 100 |
| O=C(c1cccc(Cn2c(CCCC(F)(F)F)nc(-c3ccc(Cl)cc3)cc2=O)c1)N(CCO)CCO [Compound I-0197] | 100 to 1000 |
| COC(=O)Nc1cc(C#N)ccc1-c1cc(=O)n(CC(=O)NC(C)(C)CO)c(C)n1 [Compound I-0400] | 10 to 100 |
| Cc1nc(-c2ccc(F)cc2NC(=O)C2CC2)cc(=O)n1CC(=O)NCC1(CO)COC1 [Compound I-0281] | 100 to 1000 |
| N#CC1(NC(=O)Cn2c(COCC3CC3)nc(-c3ccc(Cl)cc3)cc2=O)CC1 [Compound I-0209] | 10 to 100 |
| CCCCCn1c(-c2ccc(Cl)cc2)cc(=O)n(C)c1=N [Compound I-0001] | ≥ 1000 |
| O=C(Cn1c(CCCC(F)(F)F)nc(-c2ccc(Cl)cc2)cc1=O)NCc1cc(=O)[nH]o1 [Compound I-0120] | < 10 |
| CCCCCc1nc(-c2ccc(Cl)cc2)cc(=O)n1CC(=O)NCC(=O)N1CCC(C(=O)O)CC1 [Compound I-0059] | 10 to 100 |
| CC(C)(C)C(=O)Nc1cc(Cl)ccc1-c1cc(=O)n(CC(=O)NCC2(CO)COC2)c(CCC(F)(F)F)n1 [Compound I-0360] | 100 to 1000 |
| CCCCCc1nc(-c2ccc(Cl)cc2)cc(=O)n1CC(=O)N1CCC(c2cccc(C(=O)O)c2)CC1 [Compound I-0053] | 10 to 100 |
| O=C(Cn1c(CCCC(F)(F)F)nc(-c2ccc(C(F)(F)F)cc2)cc1=O)NCC(O)CO (centres unmarked) [Compound I-0323] | 10 to 100 |
| O=C(Cn1c(COCC2CC2)nc(-c2ccc(Cl)cc2)cc1=O)NCC1(CO)CC1 [Compound I-0212] | 100 to 1000 |
| O=C(O)c1ccc(Cn2c(CCCC(F)(F)F)nc(-c3ccc(Cl)cc3)cc2=O)o1 [Compound I-0280] | 10 to 100 |
| COC(=O)Nc1cc(C#N)ccc1-c1cc(=O)n(CC(=O)N2CCC(O)CC2)c(C)n1 [Compound I-0418] | 10 to 100 |
| CNC(=O)CNC(=O)Cn1c(CCCC(F)(F)F)nc(-c2ccc(Cl)cc2)cc1=O [Compound I-0126] | 100 to 1000 |
| O=C(Cn1cnc(-c2ccc(Cl)cc2)cc1=O)NC(Cc1ccccc1)C(=O)O (centres unmarked) [Compound I-0396] | ≥ 1000 |
| N#CC1(NC(=O)Cn2c(CCCC(F)(F)F)nc(-c3c(F)cc(Cl)cc3F)cc2=O)CC1 [Compound I-0234] | 10 to 100 |
| N#CC1(NC(=O)Cn2c(CCCC(F)(F)F)nc(N3CCC(F)(F)CC3)cc2=O)CC1 [Compound I-0237] | 100 to 1000 |
| O=C1CCC(CNC(=O)Cn2c(CCCC(F)(F)F)nc(-c3ccc(C(F)(F)F)cc3)cc2=O)CN1 (centres unmarked) [Compound I-0343] | 100 to 1000 |
| N#CC1CN(C(=O)Cn2c(CCCC(F)(F)F)nc(-c3ccc(C(F)(F)F)cc3)cc2=O)C1 [Compound I-0314] | 10 to 100 |
| CCCCCc1nc(-c2ccc(Cl)cc2)cc(=O)n1CC(=O)NCCCCC(=O)O [Compound I-0064] | < 10 |

| Structure (SMILES) | IC50 [nM] |
| --- | --- |
| CCCCCNc1nc(-c2ccc(C(F)(F)F)cc2)cc(=O)n1Cc1cccc(C(=O)NC(Cc2ccccc2)C(=O)O)c1 (centres unmarked) [Compound I-0014] | 100 to 1000 |
| CCCCCc1nc(-c2ccc(Cl)cc2)cc(=O)n1CC(=O)N(C)CCO [Compound I-0029] | 100 to 1000 |
| CCCCCc1nc(-c2ccc(Cl)cc2)cc(=O)n1CC(=O)NCCS(C)(=O)=O [Compound I-0094] | 10 to 100 |
| O=C(NCCO)c1cccc(Cn2c(CCCC(F)(F)F)nc(-c3ccc(Cl)cc3)cc2=O)c1 [Compound I-0172] | 100 to 1000 |
| O=C(Cn1c(COCC(F)(F)F)nc(-c2ccc(Cl)cc2)cc1=O)NCC1(CO)CC1 [Compound I-0211] | 10 to 100 |
| COc1ccc(Cn2c(-c3ccc(Cl)cc3)cc(=O)n(CC(=O)NC(Cc3ccccc3)C(=O)O)c2=O)cc1 (centres unmarked) [Compound I-0107] | ≥ 1000 |
| CCCCCNc1nc(-c2ccc(C#N)cc2)cc(=O)n1Cc1cccc(C(=O)O)c1 [Compound I-0022] | 10 to 100 |
| CC(C)(O)CNC(=O)Cn1c(CCCC(F)(F)F)nc(-c2ccc(Cl)cc2)cc1=O [Compound I-0134] | < 10 |
| Cc1nc(-c2ccc(Cl)cc2NC(=O)C(C)(C)C)cc(=O)n1CC(=O)N1CCC(C(N)=O)CC1 [Compound I-0329] | 10 to 100 |
| O=C(NCC(O)c1ccccc1)c1cccc(Cn2c(CCCC(F)(F)F)nc(-c3ccc(Cl)cc3)cc2=O)c1 (centres unmarked) [Compound I-0167] | 100 to 1000 |
| CCCOCc1nc(-c2ccc(Cl)cc2)cc(=O)n1CC(=O)NC1(CO)CC1 [Compound I-0204] | 100 to 1000 |
| CC(C)(C)C(=O)Nc1cc(Cl)ccc1-c1cc(=O)n(Cc2cccc(C(=O)N3CCC4(COC4)C3)c2)cn1 [Compound I-0495] | 10 to 100 |
| O=C(Cn1cnc(-c2ccc(Cl)cc2)cc1=O)NCCCCNC(=O)c1ccc2nn[nH]c2c1 [Compound I-0472] | ≥ 1000 |
| CCCOCc1nc(-c2ccc(Cl)cc2)cc(=O)n1CC(=O)NC1(C#N)CC1 [Compound I-0203] | 100 to 1000 |
| CCCCCNc1nc(-c2ccc(C(F)(F)F)cc2)cc(=O)n1Cc1cccc(C(=O)NCCC(=O)O)c1 [Compound I-0016] | 100 to 1000 |
| O=C(NCC1(CO)COC1)c1cccc(Cn2c(CCCC(F)(F)F)nc(-c3ccc(Cl)cc3)cc2=O)n1 [Compound I-0358] | 10 to 100 |
| COC(=O)Nc1cc(Cl)ccc1-c1cc(=O)n(CC(=O)N2CCC(c3nc(=O)o[nH]3)CC2)c(C)n1 [Compound I-0482] | < 10 |
| CC(C)(CNC(=O)Cn1c(CCCC(F)(F)F)nc(-c2ccc(Cl)cc2)cc1=O)N1CCOCC1 [Compound I-0122] | 100 to 1000 |
| COC(=O)Nc1cc(Cl)ccc1-c1cc(=O)n(CC(=O)NC2(c3ccc(F)cc3)COC2)c(C)n1 [Compound I-0480] | 10 to 100 |
| CCCCCc1nc(-c2ccc(Cl)cc2)cc(=O)n1CC(=O)OC [Compound I-0023] | 10 to 100 |
| CCCCCc1nc(-c2ccc(Cl)cc2)cc(=O)n1CC(=O)NCc1ccccc1C(=O)O [Compound I-0054] | 100 to 1000 |
| O=C(Cn1c(CCCC(F)(F)F)nc(-c2ccc(C(F)(F)F)cc2)cc1=O)NCc1nn[nH]n1 [Compound I-0331] | < 10 |
